Active and inactive are the calls of the source. The calls are words filed in the database; no cut-off is given here.
Columns and labels:
Mus musculus [1] = assay: In vivo activity against iv transplanted AML Leukemia 1498 tumors of mice; Not active; type: functional, organism-based
Mus musculus [2] = assay: In vivo activity against iv transplanted Leukemia L1210 tumors of mice; Not active; type: functional, organism-based
Mus musculus [3] = assay: In vivo activity against transplanted Mam-16/C/ Taxol tumors of mice; Not active; type: functional, organism-based
Mus musculus [4] = assay: In vivo activity against transplanted Mam-16/C/Adr tumors of mice; Not active; type: functional, organism-based
Mus musculus [5] = assay: In vivo activity against transplanted Mam-17 tumors of mice; Not active; type: functional, organism-based
Mus musculus [6] = assay: In vivo activity against transplanted Mam-17/Adr tumors of mice; Not active; type: functional, organism-based
Mus musculus [7] = assay: In vivo activity against transplanted colon-26 tumors of mice; Not active; type: functional, organism-based
Mus musculus [8] = assay: In vivo activity against transplanted Mam-16/C tumors of mice; type: functional, organism-based
Mus musculus [9] = assay: In vivo activity against transplanted Panc-02 tumors of mice; type: functional, organism-based
Mus musculus [10] = assay: In vivo activity against transplanted Panc-03 tumors of mice; type: functional, organism-based
Mus musculus [11] = assay: In vivo activity against transplanted Squam lung-LC12 tumors of mice; type: functional, organism-based
Mus musculus [12] = assay: In vivo activity against transplanted colon-38 tumors of mice; type: functional, organism-based
Mus musculus [13] = assay: In vivo activity against transplanted colon-51 tumors of mice; type: functional, organism-based
Mus musculus [14] = assay: In vivo activity against transplanted Mel-B16 tumors of mice; type: functional, organism-based
Mus musculus [15] = assay: In vivo antitumor activity against tumor […]; Inactive; type: functional, organism-based
Mus musculus [16] = assay: In vivo activity tested against C3H mice bearing panc-03 murine tumor at a dose of 330mg/kg, measured as % treated/control; type: functional
Mus musculus [17] = assay: In vivo activity tested against C3H mice bearing panc-03 murine tumor at a dose of 330mg/kg, measured as activity rating; type: functional
Mus musculus [18] = assay: In vivo activity tested against C3H mice bearing mammary adenocarcinoma -17/ADR tumor measured as body weight loss at 301 mg/kg (po); type: functional
Mus musculus [19] = assay: In vivo activity tested against C3H mice bearing mammary adenocarcinoma -17/ADR tumor measured as % treated/control calculated at 301 mg/kg (po); type: functional
Mus musculus [20] = assay: In vivo activity tested against C3H mice bearing mammary adenocarcinoma -17/ADR tumor measured as activity rating at 301 mg/kg (po); type: functional
Mus musculus [21] = assay: In vivo activity tested against C3H mice bearing mammary adenocarcinoma -17/ADR tumor measured as log Kill value was based on tumors that grew at 301 mg/kg (po); type: functional, organism-based; design: dose 301 mg/kg
Mus musculus [22] = assay: In vivo activity against iv transplanted Leukemia L1210 tumors of mice; type: functional, organism-based
Mus musculus [23] = assay: In vivo activity against transplanted Mam-16/C/ Taxol tumors of mice; type: functional, organism-based
Mus musculus [24] = assay: In vivo activity against transplanted Mam-16/C/Adr tumors of mice; type: functional, organism-based
Mus musculus [25] = assay: In vivo activity against transplanted Mam-17/Adr tumors of mice; type: functional, organism-based
Mus musculus [26] = assay: In vivo activity against transplanted colon-26 tumors of mice; type: functional, organism-based
Mus musculus [27] = assay: In vivo activity against transplanted Mam-17 tumors of mice; type: functional, organism-based
Mus musculus [28] = assay: In vivo activity tested against C3H mice bearing panc-03 murine tumor measured as % treated/control calculated at 700 mg/kg (po); type: functional
Mus musculus [29] = assay: In vivo activity tested against C3H mice bearing panc-03 murine tumor measured as body weight loss at 700 mg/kg (po); type: functional
Mus musculus [30] = assay: In vivo activity tested against C3H mice bearing panc-03 murine tumor measured as log Kill value was based on tumors that grew at 700 mg/kg (po); type: functional, organism-based; design: dose 700 mg/kg
Mus musculus [31] = assay: In vivo activity against transplanted Mel-B16 tumors of mice; Not active; type: functional, organism-based
Mus musculus [32] = assay: In vivo activity against transplanted Panc-02 tumors of mice; Not active; type: functional, organism-based
Mus musculus [33] = assay: In vivo activity against transplanted Panc-03 tumors of mice; Not active; type: functional, organism-based
Mus musculus [34] = assay: In vivo activity against transplanted colon-51 tumors of mice; Not active; type: functional, organism-based
Mus musculus [35] = assay: In vivo activity tested against C3H mice bearing panc-03 murine tumor measured as % treated/control calculated at 800 mg/kg (po); type: functional
Mus musculus [36] = assay: In vivo activity tested against C3H mice bearing panc-03 murine tumor measured as body weight loss at 800 mg/kg (po); type: functional
Mus musculus [37] = assay: In vivo activity tested against C3H mice bearing panc-03 murine tumor measured as log Kill value was based on tumors that grew at 800 mg/kg (po); type: functional, organism-based; design: dose 800 mg/kg

Question: What does the source list for CC[C@@]1(O)C(=O)OCc2c1cc1n(c2=O)Cc2cc3ccccc3nc2-1?
Answer: NA (Mus musculus [1]): inactive; NA (Mus musculus [2]): inactive; NA (Mus musculus [3]): inactive; NA (Mus musculus [4]): inactive; NA (Mus musculus [5]): inactive; NA (Mus musculus [6]): inactive; NA (Mus musculus [7]): inactive; Log kill (Mus musculus [8]): 2.8; Log kill (Mus musculus [9]): < 0.7; Log kill (Mus musculus [10]): > 2.8; Log kill (Mus musculus [11]): < 0.7; Log kill (Mus musculus [12]): 1.2; Log kill (Mus musculus [13]): 1.2; Log kill (Mus musculus [14]): 1.2

Question: For CC(Oc1ccccc1Oc1cnc2ccc(Cl)cc2n1)C(=O)O (configuration not stated), which NA (Mus musculus [15]) is on record?
Answer: inactive

Question: For CC(Oc1cccc(Oc2cnc3ccc(Cl)cc3n2)c1)C(=O)O (configuration not stated), which T/C (Mus musculus [16]) is on record?
Answer: 100%

Question: What about the Activity rating (Mus musculus [17]) of the same compound?
Answer: <0.7

Question: Which results are given for C[C@@H](Oc1ccc(Oc2cnc3ccc(Cl)cc3n2)cc1)C(=O)O [R(+)XK469]?
Answer: Body weight loss (Mus musculus [18]): -8%; T/C (Mus musculus [19]): 2%; Activity rating (Mus musculus [20]): >2.8; Log kill (Mus musculus [21]): 2.9

Question: Which results are given for COc1cc([C@@H]2c3cc4c(cc3[C@@H](O[C@@H]3O[C@@H]5CO[C@@H](C)O[C@H]5[C@H](O)[C@H]3O)[C@H]3COC(=O)[C@H]23)OCO4)cc(OC)c1O?
Answer: NA (Mus musculus [1]): inactive; Log kill (Mus musculus [22]): > 5; Log kill (Mus musculus [8]): 2.8; Log kill (Mus musculus [23]): 1.2; Log kill (Mus musculus [24]): < 0.7; Log kill (Mus musculus [25]): < 0.7; Log kill (Mus musculus [9]): < 0.7; Log kill (Mus musculus [10]): 1.9; Log kill (Mus musculus [11]): > 2.8; Log kill (Mus musculus [26]): < 0.7; Log kill (Mus musculus [12]): 1.9; Log kill (Mus musculus [13]): 0.7; Log kill (Mus musculus [14]): < 0.7; Log kill (Mus musculus [27]): 1.9

Question: How did the NA (Mus musculus [15]) turn out when CC(Oc1cnc2ccc(Cl)cc2n1)C(=O)O (configuration not stated) was run?
Answer: inactive

Question: What does the source list for CC(Oc1ccc(Oc2cnc3cc([N+](=O)[O-])ccc3n2)cc1)C(=O)O (configuration not stated)?
Answer: T/C (Mus musculus [28]): 41%; Body weight loss (Mus musculus [29]): -1.4%; Log kill (Mus musculus [30]): 0.42

Question: Which NA (Mus musculus [1]) does the source give for Nc1ccn([C@@H]2O[C@H](CO)[C@@H](O)C2(F)F)c(=O)n1 here?
Answer: inactive

Question: What about the NA (Mus musculus [3]) of the same compound?
Answer: inactive

Question: And the NA (Mus musculus [4])?
Answer: inactive

Question: What about the NA (Mus musculus [5]) of the same compound?
Answer: inactive

Question: And the NA (Mus musculus [6])?
Answer: inactive

Question: And the NA (Mus musculus [31])?
Answer: inactive

Question: What about the NA (Mus musculus [32]) of the same compound?
Answer: inactive

Question: What about the NA (Mus musculus [33]) of the same compound?
Answer: inactive

Question: What about the NA (Mus musculus [34]) of the same compound?
Answer: inactive

Question: What about the Log kill (Mus musculus [22]) of the same compound?
Answer: > 5

Question: And the Log kill (Mus musculus [8])?
Answer: > 2.8

Question: What about the Log kill (Mus musculus [11]) of the same compound?
Answer: < 0.7

Question: And the Log kill (Mus musculus [26])?
Answer: 2.8

Question: And the Log kill (Mus musculus [12])?
Answer: 2.8

Question: For O=NN(CCCl)C(=O)NCCCl, which NA (Mus musculus [1]) is on record?
Answer: inactive

Question: What about the NA (Mus musculus [3]) of the same compound?
Answer: inactive

Question: What about the Log kill (Mus musculus [22]) of the same compound?
Answer: > 5

Question: What about the Log kill (Mus musculus [8]) of the same compound?
Answer: < 0.7

Question: And the Log kill (Mus musculus [24])?
Answer: 0.7

Question: What about the Log kill (Mus musculus [25]) of the same compound?
Answer: < 0.7

Question: And the Log kill (Mus musculus [9])?
Answer: < 0.7

Question: What about the Log kill (Mus musculus [10]) of the same compound?
Answer: < 0.7

Question: What about the Log kill (Mus musculus [11]) of the same compound?
Answer: 1.2

Question: What about the Log kill (Mus musculus [26]) of the same compound?
Answer: > 2.8

Question: And the Log kill (Mus musculus [12])?
Answer: < 0.7

Question: What about the Log kill (Mus musculus [13]) of the same compound?
Answer: 1.9

Question: And the Log kill (Mus musculus [14])?
Answer: > 2.8

Question: What about the Log kill (Mus musculus [27]) of the same compound?
Answer: < 0.7

Question: With CC(Oc1ccc(-c2ccc(Oc3cnc4ccc(Cl)cc4n3)cc2)cc1)C(=O)O (configuration not stated) as the compound, how does the NA (Mus musculus [15]) read?
Answer: inactive

Question: With CC(Oc1ccc(Nc2cnc3ccc(Cl)cc3n2)cc1)C(=O)O (configuration not stated) as the compound, how does the NA (Mus musculus [15]) read?
Answer: inactive

Question: CC(Oc1ccc(Oc2cnc3ccc(Cl)cc3n2)cc1)C(=O)NN (configuration not stated) was tested. Which T/C (Mus musculus [35]) did it give?
Answer: 27%

Question: And the Body weight loss (Mus musculus [36])?
Answer: -6.5%

Question: What about the Log kill (Mus musculus [37]) of the same compound?
Answer: 0.75
